Results from PubChem BioAssay AID292 (DTP/NCI, 2004).
Values joined by “and” are separate entries in the source; they are usually repeats but may differ in a detail not shown here. Identical values can stand only once. Toxic doses and inconclusive results are not listed.

Test system: B6C3F1 mice, ip Sarcoma M5076, median survival T/C
Assay: NCI In Vivo Anticancer Drug Screen. Data for tumor model Sarcoma M5076 (intraperitoneal) in B6C3F1 mice
Conditions: endpoint: median survival time, higher = longer survival
Experimental: The antitumor activity of compounds was measured in mice bearing transplantable tumors. Survival or tumor size were measured and the results are expressed as the measurement made in the treated group (T) divided by the measurement made in the vehicle treated control group (C). The tumor model used in this assay is Sarcoma M5076 (intraperitoneal) in B6C3F1 mice

[1] = dose: 25.0 mg/kg/injection, schedule: Q04DX004 (ip), vehicle: water
[2] = dose: 50.0 mg/kg/injection, schedule: Q04DX004 (ip), vehicle: water
[3] = dose: 50.0 mg/kg/injection, schedule: Q04DX004 (ip), vehicle: saline with Tween-80
[4] = dose: 100.0 mg/kg/injection, schedule: Q04DX004 (ip), vehicle: saline with Tween-80
[5] = dose: 200.0 mg/kg/injection, schedule: Q04DX004 (ip), vehicle: saline with Tween-80
[6] = dose: 400.0 mg/kg/injection, schedule: Q04DX004 (ip), vehicle: saline with Tween-80
[7] = dose: 25.0 mg/kg/injection, schedule: Q04DX004 (ip), vehicle: saline with Tween-80
[8] = dose: 37.5 mg/kg/injection, schedule: Q04DX004 (ip), vehicle: saline with Tween-80
[9] = dose: 75.0 mg/kg/injection, schedule: Q04DX004 (ip), vehicle: saline with Tween-80
[10] = dose: 150.0 mg/kg/injection, schedule: Q04DX004 (ip), vehicle: saline with Tween-80
[11] = dose: 18.75 mg/kg/injection, schedule: Q04DX004 (ip), vehicle: saline with Tween-80

COc1ccc(OC)c(Cc2cnc3nc(N)nc(N)c3c2C)c1
T/C [1]: 95 % of control | T/C [2]: 115 % of control

OC(C1CO1)C(O)C1CO1 (stereo not given)
T/C (dose: 1.0 mg/kg/injection, schedule: Q04DX005 (ip), vehicle: saline): 123 % of control | T/C (dose: 2.0 mg/kg/injection, schedule: Q04DX005 (ip), vehicle: saline): 169 % of control | T/C (dose: 4.0 mg/kg/injection, schedule: Q04DX005 (ip), vehicle: saline): 287 % of control | T/C (dose: 8.0 mg/kg/injection, schedule: Q04DX005 (ip), vehicle: saline): 319 % of control

O=C1NC2(CN3CCC2CC3)C(=O)N1CN(Cc1ccccc1)c1ccccc1 (stereo not given)
T/C [3]: 97 % of control | T/C [4]: 102 % of control | T/C [5]: 93 % of control | T/C [6]: 87 % of control | T/C (dose: 800.0 mg/kg/injection, schedule: Q04DX004 (ip), vehicle: saline with Tween-80): 90 % of control

CN1CCN(c2ccc3nc(-c4ccc5nc(-c6ccc(O)cc6)[nH]c5c4)[nH]c3c2)CC1
T/C (dose: 28.0 mg/kg/injection, schedule: Q04DX004 (ip), vehicle: saline): 96 % of control | T/C (dose: 56.0 mg/kg/injection, schedule: Q04DX004 (ip), vehicle: saline): 92 % of control | T/C (dose: 112.0 mg/kg/injection, schedule: Q04DX004 (ip), vehicle: saline): 100 % of control | T/C (dose: 225.0 mg/kg/injection, schedule: Q04DX004 (ip), vehicle: saline): 86 % of control

CO[C@@]12[C@@H]3N[C@@H]3CN1C1=C(C(=O)C(NCC3CCCO3)=C(C)C1=O)[C@@H]2COC(N)=O (stereo not given in full)
T/C (dose: 1.5 mg/kg/injection, schedule: Q04DX004 (ip), vehicle: distilled water + Tween-80): 117 % of control | T/C (dose: 3.0 mg/kg/injection, schedule: Q04DX004 (ip), vehicle: distilled water + Tween-80): 118 % of control | T/C (dose: 12.0 mg/kg/injection, schedule: Q04DX004 (ip), vehicle: distilled water + Tween-80): 160 % of control | T/C (dose: 24.0 mg/kg/injection, schedule: Q04DX004 (ip), vehicle: distilled water + Tween-80): 191 % of control

CC1(CO)C(O)CCC2(C)C1CCC1CC3CC12CCC3(O)CO (stereo not given)
T/C (dose: 51.8 mg/kg/injection, schedule: Q04DX005 (ip), vehicle: Klucel (hydroxypropylcellulose) (HPC)): 120 % of control | T/C (dose: 86.4 mg/kg/injection, schedule: Q04DX004 (ip), vehicle: Klucel (hydroxypropylcellulose) (HPC)): 120 % of control | T/C (dose: 86.4 mg/kg/injection, schedule: Q04DX005 (ip), vehicle: Klucel (hydroxypropylcellulose) (HPC)): 124 % of control | T/C (dose: 144.0 mg/kg/injection, schedule: Q04DX004 (ip), vehicle: Klucel (hydroxypropylcellulose) (HPC)): 116 % of control | T/C (dose: 144.0 mg/kg/injection, schedule: Q04DX005 (ip), vehicle: Klucel (hydroxypropylcellulose) (HPC)): 123 % of control | T/C (dose: 240.0 mg/kg/injection, schedule: Q04DX005 (ip), vehicle: Klucel (hydroxypropylcellulose) (HPC)): 122 % of control | T/C (dose: 400.0 mg/kg/injection, schedule: Q04DX004 (ip), vehicle: Klucel (hydroxypropylcellulose) (HPC)): 151 % of control and 164 % of control

O=C(Oc1ccccc1)c1cc(O)c(O)c(O)c1
T/C [7]: 97 % of control | T/C [3]: 93 % of control | T/C [4]: 92 % of control | T/C [5]: 88 % of control

Cc1ccc(/C=C2/N=C([Se])N(C)C2=O)cc1
T/C [8]: 124 % of control | T/C [9]: 98 % of control | T/C [10]: 89 % of control

O=C(CSc1nnc(-c2ccc(Cl)cc2)s1)Nc1nccs1
T/C (dose: 5.0 mg/kg/injection, schedule: Q04DX004 (ip), vehicle: saline with Tween-80): 101 % of control | T/C (dose: 10.0 mg/kg/injection, schedule: Q04DX004 (ip), vehicle: saline with Tween-80): 95 % of control | T/C (dose: 20.0 mg/kg/injection, schedule: Q04DX004 (ip), vehicle: saline with Tween-80): 93 % of control | T/C [8]: 90 % of control | T/C (dose: 40.0 mg/kg/injection, schedule: Q04DX004 (ip), vehicle: saline with Tween-80): 88 % of control | T/C (dose: 80.0 mg/kg/injection, schedule: Q04DX004 (ip), vehicle: saline with Tween-80): 88 % of control

CN1c2ccccc2C(=O)N2C(=O)CCC21C (stereo not given)
T/C [11]: 100 % of control | T/C [8]: 100 % of control | T/C [9]: 102 % of control | T/C [10]: 101 % of control

NC(=O)c1ncn(C2CC3[O][Sn]([c]4ccccc4)([c]4ccccc4)[O]CC3O2)n1 (stereo not given)
T/C (dose: 31.13 mg/kg/injection, schedule: Q04DX004 (ip), vehicle: distilled water + Tween-80): 95 % of control | T/C (dose: 62.5 mg/kg/injection, schedule: Q04DX004 (ip), vehicle: distilled water + Tween-80): 104 % of control | T/C (dose: 125.0 mg/kg/injection, schedule: Q04DX004 (ip), vehicle: distilled water + Tween-80): 114 % of control | T/C (dose: 250.0 mg/kg/injection, schedule: Q04DX004 (ip), vehicle: distilled water + Tween-80): 114 % of control | T/C (dose: 500.0 mg/kg/injection, schedule: Q04DX004 (ip), vehicle: distilled water + Tween-80): 122 % of control

COC1=CC(=O)C(OC)=C(OC)C1=O
T/C [11]: 95 % of control | T/C [8]: 95 % of control | T/C [9]: 99 % of control | T/C [10]: 97 % of control | T/C (dose: 300.0 mg/kg/injection, schedule: Q04DX004 (ip), vehicle: saline with Tween-80): 93 % of control

CC[C@@]1(O)C(=O)OCc2c1cc1n(c2=O)Cc2cc3ccccc3nc2-1
T/C (dose: 0.37 mg/kg/injection, schedule: Q04DX004 (ip), vehicle: saline with Tween-80): 107 % of control | T/C (dose: 0.75 mg/kg/injection, schedule: Q04DX004 (ip), vehicle: saline with Tween-80): 109 % of control | T/C (dose: 1.5 mg/kg/injection, schedule: Q04DX004 (ip), vehicle: saline with Tween-80): 118 % of control | T/C (dose: 3.0 mg/kg/injection, schedule: Q04DX004 (ip), vehicle: saline with Tween-80): 150 % of control | T/C (dose: 6.0 mg/kg/injection, schedule: Q04DX004 (ip), vehicle: saline with Tween-80): 153 % of control and 159 % of control

OCC(O)C(O)C(O)C(O)CO (stereo not given)
T/C (dose: 75.0 mg/kg/injection, schedule: Q04DX004 (ip), vehicle: saline): 96 % of control and 102 % of control | T/C (dose: 150.0 mg/kg/injection, schedule: Q04DX004 (ip), vehicle: saline): 111 % of control | T/C (dose: 300.0 mg/kg/injection, schedule: Q04DX004 (ip), vehicle: saline): 96 % of control and 100 % of control | T/C (dose: 600.0 mg/kg/injection, schedule: Q04DX004 (ip), vehicle: saline): 92 % of control and 101 % of control | T/C (dose: 1200.0 mg/kg/injection, schedule: Q04DX004 (ip), vehicle: saline): 101 % of control and 106 % of control

O=C1NC(=O)C23CCCCc4cccc(c42)C(=O)C13 (stereo not given)
T/C [1]: 103 % of control | T/C [2]: 103 % of control | T/C (dose: 100.0 mg/kg/injection, schedule: Q04DX004 (ip), vehicle: water): 107 % of control | T/C (dose: 200.0 mg/kg/injection, schedule: Q04DX004 (ip), vehicle: water): 103 % of control | T/C (dose: 400.0 mg/kg/injection, schedule: Q04DX004 (ip), vehicle: water): 106 % of control

C=C1C(O)C2OC3(CCC(/C=C/C(C)C4CC5(C)SC5C5(OC(CC(C)(O)C(=O)O)CCC5O)O4)O3)CCC2OC1C(O)CC(C)C1OC2(CCCCO2)CCC1C (stereo not given)
T/C (dose: 2.5 micrograms/kg/injection, schedule: Q04DX004 (ip), vehicle: saline + alcohol): 101 % of control | T/C (dose: 5.0 micrograms/kg/injection, schedule: Q04DX004 (ip), vehicle: saline + alcohol): 96 % of control | T/C (dose: 10.0 micrograms/kg/injection, schedule: Q04DX004 (ip), vehicle: saline + alcohol): 99 % of control | T/C (dose: 20.0 micrograms/kg/injection, schedule: Q04DX004 (ip), vehicle: saline + alcohol): 95 % of control | T/C (dose: 40.0 micrograms/kg/injection, schedule: Q04DX004 (ip), vehicle: saline + alcohol): 95 % of control

O=c1c2ccccc2nc(-c2ccccc2)n1-c1nccs1
T/C [7]: 94 % of control | T/C [5]: 89 % of control | T/C [6]: 90 % of control

Cn1c(=S)[nH]n(CCOc2ccccc2)c1=S
T/C (dose: 31.25 mg/kg/injection, schedule: Q04DX004 (ip), vehicle: saline with Tween-80): 105 % of control | T/C (dose: 62.5 mg/kg/injection, schedule: Q04DX004 (ip), vehicle: saline with Tween-80): 99 % of control | T/C (dose: 125.0 mg/kg/injection, schedule: Q04DX004 (ip), vehicle: saline with Tween-80): 101 % of control | T/C (dose: 250.0 mg/kg/injection, schedule: Q04DX004 (ip), vehicle: saline with Tween-80): 100 % of control
